Like-named read-outs stand apart in the source and are kept apart here.
How the values were obtained:
[1] = Solubility of solid state forms in solvents (gravimetric or solvent addition); type: physicochemical; conditions: for solubility: thermodynamic from solid, read-out: Solubility
Method: The solubility of certain solid state forms of Compound I was determined in various solvents by either gravimetric solubility or solvent addition.
About 25 mg of compound was weighed into vials. Approximately 5 vol. (0.125 mL) of solvent was added to the solids and the mixtures stirred at the designated temperature (RT or 50° C.). Solutions were noted and an additional 0.125 mL of solvent was added to the slurries. […] If a thicker slurry was noted, 0.25 mL of solvent was added (total volume 0.5 mL). If a thick slurry was again noted, an additional 0.25 mL of solvent was added (total volume 0.75 mL). After stirring for 2 days, the slurries were centrifuged, the supernatant was collected into preweighed vials, and the solvent evaporated at 50° C. (ambient pressure) without stirring. The vials containing the solid residues were dried in a vacuum oven at 50 C, 10^−2-10^−1 Torr, for 3 h before weighing again to determine the mass of solid that was dissolved in the supernatant (i.e. mg solid/mL solvent).
About 20 mg of compound was weighed into vials. Solvent was added in aliquots and stirred at the designated temperature until complete dissolution was observed. This measurement gave a solubility range.

[2] = Solubility in simulated fluids and water; type: physicochemical; conditions: 37° C.
Method: Calibration samples for solubility in simulated fluids were prepared with freebase Compound I.
Solubility in simulated fluids were studied with the mandelate and maleate solids. The simulated fluids FaSSIF (fasted-state intestinal), FaSSGF (fasted-state gastric), and FeSSIF (fed-state intestinal) were removed from the refrigerator, warmed to room temperature, and the pH of each was measured. Between 1.9 and 2.0 mg of each salt was weighed into four vials and 1 mL of each fluid was added, including water. Stir bars (10 mm) were added to the vials and the vials were stirred at 37° C. After 30 mi (mandelate samples) or 1 h (maleate samples), the pH of each solution was measured, then 400 μL of each was removed and syringe filtered with 0.45 µm syringe filters. Approximately 300 μL of the recovered filtrate was diluted 5× with diluent and injected for HPLC analysis. The remainder of the samples in the vials were allowed to stir overnight. After 24 h stirring at 37° C., samples were filtered and diluted as before, and injected for analysis.

[3] = Dynamic vapor sorption (DVS); type: physicochemical
Method: DVS was performed using a DVS Intrinsic 1. The sample (20-25 mg) was loaded into a sample pan, suspended from a microbalance and exposed to a humidified stream of nitrogen gas. The sample was held for a minimum of 5 min at each level and only progressed to the next humidity level if there was <0.002% change in weight between measurements (interval: 60 s) or 240 min had elapsed. The following program was used: • 1. Equilibration at 50% RH • 2. 50% to 2%. (50%, 40%, 30%, 20%, 10%, and 2%) • 3. 2% to 95% (2%, 10%, 20%, 30%, 40%, 50%, 60%, 70%, 80%, 90%, and 95%) • 4. 95% to 2% (95%, 80%, 70%, 60%, 50%, 40%, 30%, 20%, 10%, and 2%) • 5. 2% to 50% (2%, 10%, 20%, 30%, 40%, and 50%)

[4] = Form stability at ambient conditions for one week (XRPD); type: physicochemical; conditions: listed as Pattern C, maleate
Text: Some of the samples generated in the antisolvent crystallization experiments were mixtures of Pattern B, Pattern C, and Pattern D. These samples were left at ambient conditions for one week, then analyzed again by XRPD.
Pure Pattern B was generated in the antisolvent crystallization with MIBK and heptane. […] The solids were scraped from the XRPD plate and used for simultaneous TGA/DSC analysis. […] After the solids required for the TGA/DSC analysis were transferred to the pan, the remainder of the solids were re-pressed to the XRPD sample plate and analyzed again.

[5] = Salt screening XRPD stages: drying and overnight humidity exposure; conditions: >95% relative humidity overnight
Method: XRPD analysis is typically done in three stages: 1) Wet: XRPD of the wet cake is done for all samples whenever solids appropriate for sampling were observed. 2) Dry: Unique solids are then left on XRPD plates and dried under vacuum at 50° C. for at least 3 h. XRPD of unique dry solids are then collected. 3) Humid: Solids are then exposed to >95% relative humidity overnight and XRPD on resulting solids is collected. The humid environment is generated by placing a beaker of saturated potassium sulfate in water in a sealed container. This procedure is not carried out for any amorphous solids obtained. All XRPD patterns are compared to counter ion XRPD patterns and known free molecule patterns.
A qualitive humidity exposure test was performed by exposing approximately 10 mg of the maleate to 80% RH overnight.

[6] = Stability of crystalline forms at 40° C. and 75% relative humidity (XRPD, HPLC purity); conditions: for Change by XRPD after storage / Degradation by HPLC purity analysis after storage: 40° C., 75% relative humidity
Method: Approximately 10 mg of the Crystalline Pattern D of Compound I Maleate, 20 mg of the Crystalline Pattern C of Compound I Maleate, and 10 mg of the Crystalline Pattern E of Compound I Mandelate were weighed into open 4 mL vials that were placed into a 20 mL vial containing a saturated NaCl solution. The vial was sealed and kept at 40° C. for 7 days, creating an atmosphere at 75% relative humidity in the system. After 7 days, the materials were sampled and plated for XRPD analysis.
The stability test was repeated on Patterns C and D of Compound I Maleate for 11 days.

With `CCOc1ccccc1-c1ccc(N2CCN(C(=O)C3(C(F)(F)F)CCC3)C[C@H]2CC)c(C(=O)N[C@@H]2CN3CCC2CC3)n1.O=C(O)/C=C\C(=O)O` [Pattern C Maleate, N-[(3S)-1-azabicyclo[2.2.2]octan-3-yl]-6-(2-ethoxyphenyl)-3-[(2R)-2-ethyl-4-[1-(trifluoromethyl)-cyclobutanecarbonyl]piperazin-1-yl]pyridine-2-carboxamide maleate] the “Solubility (in words)” value ([1]; MeOH, EtOH, acetone, THF, ACN, MEK, DMSO, and water containing systems at 8:2 vol. water:organic) was “freely soluble”, the solubility ([1]; aqueous with cosolvent or surfactant or cyclodextrin, ACN:water (2:8 vol.), RT) was > 200 mg/mL and the solubility ([1]; aqueous with cosolvent or surfactant or cyclodextrin, IPA:water (2:8 vol.), RT) was > 200 mg/mL. For the same molecule, the solubility ([1]; aqueous with cosolvent or surfactant or cyclodextrin, acetone:water (2:8 vol.), RT) was > 200 mg/mL, the solubility ([1]; organic solvent or mixture, ACN, RT) was > 200 mg/mL and the solubility ([1]; organic solvent or mixture, DMSO, RT) was > 200 mg/mL. The solubility ([1]; organic solvent or mixture, EtOAc, 50° C.) was 34 mg/mL, the solubility ([1]; organic solvent or mixture, EtOAc, RT) was 21 mg/mL and the solubility ([1]; organic solvent or mixture, EtOH, RT) was > 200 mg/mL. The solubility ([1]; organic solvent or mixture, IPA, 50° C.) was > 500 mg/mL, the solubility ([1]; organic solvent or mixture, IPA, RT) was > 200 mg/mL and the solubility ([1]; organic solvent or mixture, IPA:MtBE (1:1 vol.), 50° C.) was 36 to 43 mg/mL. It also gave a solubility ([1]; organic solvent or mixture, IPA:heptane (1:1 vol.), 50° C.) of 16 to 19 mg/mL, a solubility ([1]; organic solvent or mixture, IPAc, 50° C.) of 13 mg/mL and a solubility ([1]; organic solvent or mixture, IPAc, RT) of 8 mg/mL. The solubility ([1]; organic solvent or mixture, MEK, RT) was > 200 mg/mL, the solubility ([1]; organic solvent or mixture, MIBK, 50° C.) was 71 mg/mL and the solubility ([1]; organic solvent or mixture, MIBK, RT) was 49 mg/mL. For the same molecule, the solubility ([1]; organic solvent or mixture, MeOAc, 50° C.) was > 500 mg/mL, the solubility ([1]; organic solvent or mixture, MeOAc, RT) was > 200 mg/mL and the solubility ([1]; organic solvent or mixture, MeOAc:IPAc (1:1 vol.), 50° C.) was 37 to 45 mg/mL. For the same molecule, the solubility ([1]; organic solvent or mixture, MeOH, RT) was > 200 mg/mL, the solubility ([1]; organic solvent or mixture, MtBE, 50° C.) was 4 mg/mL and the solubility ([1]; organic solvent or mixture, MtBE, RT) was 4 mg/mL. For the same molecule, the solubility ([1]; organic solvent or mixture, THF, RT) was > 200 mg/mL, the solubility ([1]; organic solvent or mixture, acetone, RT) was > 200 mg/mL and the solubility ([1]; organic solvent or mixture, acetone:heptane (1:1 vol.), 50° C.) was 31 to 37 mg/mL. The solubility ([1]; organic solvent or mixture, chloroform, RT) was > 200 mg/mL, the solubility ([1]; organic solvent or mixture, cyclohexane, 50° C.) was 3 mg/mL and the solubility ([1]; organic solvent or mixture, cyclohexane, RT) was < 3 mg/mL. The solubility ([1]; organic solvent or mixture, n-heptane, 50° C.) was 3 mg/mL, the solubility ([1]; organic solvent or mixture, n-heptane, RT) was < 3 mg/mL and the solubility ([1]; organic solvent or mixture, toluene, 50° C.) was 7 mg/mL. For the same molecule, the solubility ([1]; organic solvent or mixture, toluene, RT) was < 3 mg/mL, the “Behaviour in solvent (in words)” value ([1]; water and 95:5 vol. water:organic systems) was “Gels/gums were generated” and the solubility at 1 h ([2]; FaSSGF (fasted-state simulated gastric fluid), pH 1.49, fassgf or other biorelevant, thermodynamic from solid, FaSSGF, 1 h) was < 2500 µg/mL. For the same molecule, the solubility at 24 h ([2]; FaSSGF (fasted-state simulated gastric fluid), pH 1.49, fassgf or other biorelevant, thermodynamic from solid, FaSSGF, 24 h) was > 2500 µg/mL, the “Sample pH” value ([2]; FaSSGF (initial pH 1.49), 1 h) was 4.66 and the “Sample pH” value ([2]; FaSSGF (initial pH 1.49), 24 h) was 5.08. For the same molecule, the solubility at 24 h ([2]; FaSSIF (fasted-state simulated intestinal fluid), pH 6.35, thermodynamic from solid, FaSSIF, 24 h) was 1410 µg/mL, the solubility at 1 h ([2]; FaSSIF (fasted-state simulated intestinal fluid), thermodynamic from solid, FaSSIF, 1 h) was 1240 µg/mL and the “Sample pH” value ([2]; FaSSIF (initial pH 6.35), 1 h) was 6.23. The “Sample pH” value ([2]; FaSSIF (initial pH 6.35), 24 h) was 6.98, the “Solids recovered from the solubility experiment (appearance, XRPD)” value ([2]; FaSSIF, after 24 h) was “oily and appeared as amorphous” and the solubility at 1 h ([2]; FeSSIF (fed-state simulated intestinal fluid), pH 4.83, thermodynamic from solid, FeSSIF, 1 h) was > 2500 µg/mL. The solubility at 24 h ([2]; FeSSIF (fed-state simulated intestinal fluid), pH 4.83, thermodynamic from solid, FeSSIF, 24 h) was > 2500 µg/mL, the “Sample pH” value ([2]; FeSSIF (initial pH 4.83), 1 h) was 1.50 and the “Sample pH” value ([2]; FeSSIF (initial pH 4.83), 24 h) was 1.89. The solubility at 1 h ([2]; thermodynamic from solid, water, 1 h) was > 2500 µg/mL, the solubility at 24 h ([2]; thermodynamic from solid, water, 24 h) was > 2500 µg/mL and the “Sample pH” value ([2]; water, 1 h) was ~6.35. For the same molecule, the “Sample pH” value ([2]; water, 24 h) was 5.50, the “Hygroscopicity (in words)” value ([3]; DVS) was “moderately hygroscopic” and the “Change by XRPD following the DVS analysis” value ([3]; after DVS from 2 to 95% RH) was “Slight changes”. The “Reversible mass gain (DVS)” value ([3]; from 2 to 95% relative humidity) was 9.18 wt. %, the “Behaviour at high humidity” value ([3]; high humidity) was “began to convert to amorphous” and the “Form conversion by XRPD at ambient conditions” value [4] was “no observable conversion”. For the same molecule, the “Stability after humidity exposure (XRPD, deliquescence)” value [5] was “stable with no observed deliquescence”, the “Change by XRPD after storage” value ([6]; 7 days) was “No visible change” and the “Degradation by HPLC purity analysis after storage” value ([6]; 7 days) was “no degradation”. For the same molecule, the “Change by XRPD after storage” value ([6]; 11 days) was “No visible change”, the “Degradation by HPLC purity analysis after storage” value ([6]; 11 days) was “no degradation” and the “Stability on storage (in words)” value ([6]; over a week at 40° C. and 75% RH) was “stable”.
